These results are taken from patent US5079247A, “N^1 -substituted benz(cd)indol-2-imine compounds as cardiovascular agents” (American Cyanamid Company, priority 1990, dated 1992).

The test system of experiment [1] is CaCl2-induced cardiac arrhythmias, fibrillation and cardiac death in mice. Description: Antiarrhythmic/antifibrillatory activity in anesthetized mice, calcium chloride challenge. The format is in vivo, mice of the Swiss Webster Strain. Conditions: Mus musculus, iv, 0.25 h; Dose = 10 mg/kg I.V.; calcium chloride 200 mg/kg i.v.; 15 minutes observation; read-out: CaCl2 Mice Surviving / Mice Tested (converted). The source says: (§1) Intravenous administration of high doses of calcium or potassium chloride in animals produces cardiac arrhythmias, cardiac fibrillation and cardiac arrest. Any agent that can prevent these events is considered an antiarrhythmic/antifibrillatory agent. (Meth. and Find Exptl. Clin Pharmacal.2:223-252(1980); Pharmacol Ther. 24:401-433 (1984); Experimental Cardiac and Antiarrhythmic Drugs, L. Szekeres and Gy. J. Dapp, Akademiai Kiado Preso, Budapest, 9-448 (1971)).
(§2) The method employed is as follows: Male mice of the Swiss Webster Strain (Charles River, Wilmington, MA) weighing 25-35 g were anesthetized with ethyl carbamate (urethan) (1.5g/kg body weight i.p.). A 25-gauge needle attached to PE-20 tubing was inserted into a caudal vein for drug administration. The lead II ECG was recorded by needle electrodes placed subcutaneously in the limbs. All data were collected on a Gould Brush recorder. Animals were observed 5 minutes before drug administration. A 5, 15 or 30 minute period following drug administration was allowed before the bolus injection of calcium chloride, 200 mg/ kg i.v. or potassium chloride, 62.5 mg/kg i.v. Control mice received 4 ml/kg of 0.9% sodium chloride i.v. Mice were observed an additional 15 minutes for arrhythmias,fibrillation, survival or death. Any compound at a dose of less than 20 mg/kg i.v. in either test that protects from cardiac death 3 or more mice out of 6 mice, is considered active.

Experiment [2] concerns KCl-induced cardiac arrhythmias, fibrillation and cardiac death in mice. As to the kind of experiment: Antiarrhythmic/antifibrillatory activity in anesthetized mice, potassium chloride challenge. Conditions: Mus musculus, iv, 0.25 h; Dose = 10 mg/kg I.V.; potassium chloride 62.5 mg/kg i.v.; 15 minutes observation; read-out: KCl Mice Surviving / Mice Tested (converted). The format is in vivo, mice of the Swiss Webster Strain.
From the text: as §1, §2

Experiment [3] relates to spontaneously hypertensive rats of the Okamoto strain. Description: Hypotensive activity in spontaneously hypertensive rats (method of Chan and Poorvin). The format is in vivo, rat. Conditions: by gavage, 100 mg/kg or less, two doses 24 hours apart; MABP at 28 hours after initial dose; average baseline MABP 160±1.5 mm of mercury. How it is done:
The novel compounds of the present invention are active hypotensive agents and were tested for hypotensive activity by the method of P. S. Chan and D. Poorvin, Clinical and Experimental Hypertension, 1 (6), 817-830 (1979). Male, 16 week old, spontaneously hypertensive rats of the Okamoto strain, from Taconic Farms, Germantown, New York, having an average mean arterial blood pressure of 160±1.5 mm of mercury, were used in the test. One to 3 rats were used per test compound. […] A second identical dose of the test compound, without sodium chloride loading was given 24 hours later. At 28 hours after the initial dose the mean arterial blood pressure (MABP) was measured. The procedure was repeated in a second and third rat when necessary.

Experiment [4] has as its target T1, thromboxane synthetase enzyme (Rattus norvegicus, UniProt P49430).
T1 construct: The platelets were isolated by centrifuging the PRP for 10 minutes; from tissue; host or cells: washed platelets from arterial blood of Okamoto-Aoki spontaneously hypertensive rats (animals from Taconic Farms)
T1 sequence (P49430 1-533): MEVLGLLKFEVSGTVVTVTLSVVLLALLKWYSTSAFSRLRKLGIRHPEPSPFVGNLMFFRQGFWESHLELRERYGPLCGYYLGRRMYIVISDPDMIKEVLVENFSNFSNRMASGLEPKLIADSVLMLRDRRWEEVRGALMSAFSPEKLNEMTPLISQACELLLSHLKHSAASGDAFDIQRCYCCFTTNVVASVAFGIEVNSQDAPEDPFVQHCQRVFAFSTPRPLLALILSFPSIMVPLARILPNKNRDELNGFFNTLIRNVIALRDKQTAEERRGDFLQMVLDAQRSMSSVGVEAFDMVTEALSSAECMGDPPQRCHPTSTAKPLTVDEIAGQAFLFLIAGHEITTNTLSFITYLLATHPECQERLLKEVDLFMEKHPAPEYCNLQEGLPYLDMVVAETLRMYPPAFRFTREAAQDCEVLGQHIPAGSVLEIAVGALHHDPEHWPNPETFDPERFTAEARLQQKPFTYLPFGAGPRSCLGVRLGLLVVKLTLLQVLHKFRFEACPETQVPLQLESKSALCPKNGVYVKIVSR
As to the kind of experiment: Thromboxane synthetase enzyme inhibition (TXB2 formation in platelet suspension, RIA). The format is cell-based, Okamoto-Aoki spontaneously hypertensive rats (SHR). Conditions: concentration 1 × 10^-4 M; SHR platelet suspension, 10 minutes at 37° C. How it is done:
Under urethan anethesia, […] of arterial blood from Okamoto-Aoki spontaneously hypertensive rats (SHR) (Taconic Farms, Germantown, New York) between 19 and 24 weeks in age was collected in 1 ml of 3.2% sodium citrate in a polystyrene tube. The blood was diluted with 3 ml of cold saline and centrifuged at room temperature for 15 minutes at 460Xg. The platelet rich plasma (PRP) was separated. The platelets were isolated by centrifuging the PRP for 10 minutes at 1060Xg and were washed in 4 ml of cold oxygenated Krebs phosphate buffer, pH 7.4. The chilled platelets, recovered from centrifuging at 800Xg for 10 minutes, were resuspended in oxygenated Krebs phosphate buffer and diluted to contain 4.5-6.0×10^4 platelets/μl. The inhibition of thromboxane (TX) formation was studied by determining the concentration of thromboxane B2 (TXB2), the stable hydrolysis product of TXA2. Assay samples, prepared on ice, contained 200 μl platelet suspension, 50 μl saline, and 50 μl vehicle or drug under study at a concentration of 1×10^-4 M. The samples were incubated for 10 minutes at 37° C. in metabolic shaker. The reaction was terminated by immersing the tubes in an ice bath and adding 50 μl of 0.5M citric acid. The samples were centrifuged for 10 minutes in a refrigerated centrifuge and the supernatants thus obtained were decanted and stored at -20° C. The TXB2 content for each sample was determined by a direct radioimmunoassay (RIA) utilizing a TXB2 specific RIA kit purchased from New England Nuclear, Boston, Massachusetts and expressed as pg TXB2 formed minute^-1 sample^-1, from which the percent inhibition of TXB2 formation was calculated.

Structures can show the parent of a compound that is named as a salt.

Turning to `N#CCCCCN1C(=NCCCCc2cccnc2)c2cccc3cccc1c23` [Example 32, N2-[[4-(3-Pyridinyl)butyl]imino]benz[cd]indole-1(2H)-pentanenitrile, (E)2-butenedioate (4:7)], the responders at 10 mg/kg is 33.3% in experiment [1] and 83.3% in experiment [2]. Also, in experiment [3], the “Avg. MABP in mm Hg (No. of Rats)” value worked out at 129 mm Hg. The molecule also yielded an inhibition at 100 µM in experiment [4] of 98%.
The corresponding values for `c1cc2c3c(cccc3c1)N(CCN1CCOCC1)C2=NCCCn1ccnc1` [Example 8, N-[1-[2-(4-Morpholinyl)ethyl]benz[cd]indol-2(1H)-ylidene-1H-imidazole-1-propanamine, (E)-2-butenedioate (1:2)] are 0%, 83.3%, 119 mm Hg and 96%.
Regarding `c1ccc(CN2C(=NCCCCn3ccnc3)c3cccc4cccc2c34)cc1` [Example 23, N-[1-(Phenylmethyl)benz[cd]indol-2(1H)-ylidene-1H-imidazole-1-butanamine,(E)-2-butenedioate (1:2)], the responders at 10 mg/kg in experiment [1] is 33.3%; in experiment [2], 100%. Further, the “Avg. MABP in mm Hg (No. of Rats)” value in experiment [3] came out at 124 mm Hg. This molecule also registered an inhibition at 100 µM in experiment [4] of 100%.
`CN1C(=NCCCc2cccnc2)c2cccc3cccc1c23` [Example 26, N-(1 Methylbenz[cd]indol-2(1H) -ylidene)-3-pyridinepropanamine, (E)-2-butenedioate (2:3)]: the responders at 10 mg/kg is 16.7% in experiment [1] and 33.3% in experiment [2]. For the same molecule, in experiment [3], the “Avg. MABP in mm Hg (No. of Rats)” value amounted to 114 mm Hg. In experiment [4], this molecule displayed an inhibition at 100 µM of 93%.
The corresponding values for `CN1C(=NCCCCc2cccnc2)c2cccc3cccc1c23` [Example 27] are 58.3%, 50%, 107 mm Hg and 100%.
For the molecule `CC(CCn1ccnc1)N=C1c2cccc3cccc(c23)N1C(c1ccccc1)c1ccccc1` (stereo not drawn) [Example 35, N-[1-(Diphenylmethyl)benz[cd]indol-2(1H)-ylidene]alpha-methyl-1H-imidazole-1-propanamine], the responders at 10 mg/kg in experiment [1] is 0%; in experiment [2], 50%. Moreover, the “Avg. MABP in mm Hg (No. of Rats)” value in experiment [3] stood at 127 mm Hg. Moreover, in experiment [4], the inhibition at 100 µM is 88%.
For the molecule `c1cncc(CCCCN=C2c3cccc4cccc(c34)N2Cc2cccnc2)c1` [Example 31, N-[1-(3-Pyridinylmethyl)benz[cd]indol 2(1H)-ylidene]-3-pyridinebutanamine, dihydrochloride], the “Avg. MABP in mm Hg (No. of Rats)” value in experiment [3] was found to be 119 mm Hg. Testing at 100 µM in experiment [4] gave an inhibition of 96%.

As a reminder, the inhibition is the relative decrease from the control value, in per cent. A high value points to a response far below the control.
